Test results from US12514814B2, “Composition containing extract of Lilium hansonii leichtlin ex baker” (LG HOUSEHOLD & HEALTH CARE LTD., priority 2019, dated 2026).

Columns and labels:
[1] = tested on: Human dermal fibroblasts; experiment: Hyaluronic acid synthesis promotion (Hyaluronan ELISA); format: cell-based; details: 10 ng/ml (10 ppb); positive control; 24 hours; control without additive = 100%
Procedure: Human dermal fibroblasts were cultured at a concentration of 1×10^5 cells/mL in a DMEM medium containing 10% fetal bovine serum and, after dispensing 500 μl thereof into each well of a 24-well plate, cultured for 18 hours. Subsequently, each sample was diluted in a DMEM medium not containing fetal bovine serum, and each sample was added at various concentrations. As a positive control, an epidermal growth factor (EGF) known to promote hyaluronic acid production was treated at a concentration of 10 ppb. After culturing for 24 hours, a cell culture medium was recovered, and the concentration of hyaluronic acid was measured using a Hyaluronan ELISA kit (R&D Systems).
In addition, the hyaluronic acid concentration of each experimental group treated with each sample was quantified based on the hyaluronic acid concentration (100%) of a control not containing an additive, and the results are shown in the following Table 5.

[2] = tested on: B-16 mouse melanoma cell; experiment: Total melanin amount reduction; format: cell-based; details: 100 μg/ml, three days
Procedure: Each of Examples 1 to 3 and Comparative Examples 1 to 3 was added to a mouse melanoma cell (B-16 mouse melanoma cell) culture medium, and a whitening effect thereof at the cellular level was tested.
Each extract was tested after being added to the culture medium at a final concentration of 100 μg/ml, and arbutin, which was a control, was added to the medium at a concentration of 100 μg/ml. B-16 melanoma cells were treated with the experimental group or the control and then cultured for three days.
Subsequently, the cultured cells were treated with trypsin, removed from the culture vessel, and then centrifuged to extract melanin. The removed cells were treated with 1 ml of a sodium hydroxide solution (1 N) and then boiled for 10 minutes to dissolve melanin, and absorbance was measured at 400 nm using a spectrophotometer to measure the amount of produced melanin.
The amount of melanin was measured as absorbance per unit cell number (10^6 cells), and a ratio thereof relative to the total melanin amount of the control was calculated as an inhibition rate (%), and the results are summarized in Table 4.

[3] = tested on: human-derived fibroblasts; experiment: Effect of increasing total collagen amount (PICP EIA kit); format: cell-based; details: 52.8 μg/ml; cultured one day; relative to control without additive; n=3
Procedure: The Lilium hansonii extracts and the three types of Lilium genus plant extracts were added to a culture medium containing human-derived fibroblasts, and then their effects of increasing a total collagen amount at the cellular level were compared. The increased total collagen amount was quantified using a Procollagen Type I C-Peptide Enzyme ImmunoAssay kit (PICP EIA kit). […] After adding each sample to a culture medium containing human-derived fibroblasts and culturing for one day, the culture medium was collected and a degree of increase in a total collagen amount at each concentration was measured at 450 nm using a PICP EIA kit and a spectrophotometer. For the comparison of effects, a degree of increase in a total collagen amount was measured in the same manner for a fibroblast culture medium to which no sample was added (control) and a sample to which vitamin C was added at a final concentration of 52.8 μg/ml. The total collagen amount was measured as UV absorbance, and a rate of increase in the total collagen amount was calculated as a ratio of a total collagen amount relative to that of the control, and the results are summarized in Table 1 below.

[4] = tested on: tyrosinase enzyme extracted from mushrooms; experiment: Tyrosinase inhibition; format: biochemical; details: 52.8 μg/ml; positive control; n=3
Procedure: A tyrosinase enzyme extracted from mushrooms and commercially available from SIGMA was used. First, tyrosine, a substrate, was dissolved in distilled water to make a solution having a concentration of 0.3 mg/ml, 1.0 ml of the solution was input into each test tube, and 1.0 ml of a potassium-phosphate buffer solution (concentration: 0.1 mol, pH: 6.8) and 0.7 ml of distilled water were added thereto. 0.2 ml of a sample solution, which had been prepared by adding one of Examples 1 to 3 of the present invention and Comparative Examples 1 to 3 to an ethanol solution at a final concentration of 100 μg/ml, was added to a reaction solution and then reacted in a 37° C. thermostat for 10 minutes. In this case, a control was prepared by adding only 0.2 ml of an ethanol solution instead of the sample solution, and vitamin C was used as a positive control. After adding 0.1 ml of a 2,500 units/ml tyrosinase solution, the reaction solution was again reacted in a 37° C. thermostat for 10 minutes. The test tube containing the reaction solution was quenched by placing in ice water to stop the reaction, and absorbance was measured at a wavelength of 475 nm using a photoelectric spectrometer, and the results are shown in Table 3 below. The tyrosinase inhibitory effect of each sample was calculated according to the following Mathematical Formula 2.

[5] = Glycation inhibitory activity using L-arginine and glucose; format: biochemical; details: 55 μg/ml; positive control; n=3
Procedure: To confirm an antiglycation efficacy, glycation inhibitory activity was measured using L-arginine and glucose.
A solution of 1 M L-arginine and 1 M glucose in 1 M phosphate buffer (pH 7.4) was first prepared and diluted with 1 M phosphate buffer so that the concentration of the sample was 100 μg/ml, 1 M L-arginine and 1 M phosphate buffer were mixed in a ratio of 1:4, and 80 μl thereof was dispensed into each well of a 96-well plate. To this, each sample, which was diluted to 100 μg/ml, and 100 μl of 0.01 M aminoguanidine, which was used as a positive control, were added. After sufficiently mixing the sample, finally, glucose which was diluted with 1 M phosphate buffer so that the final concentration of glucose was 0.1 M was added and then reacted at 70° C. for four hours. In the 96-well plate, absorbance was measured at 420 nm using a spectrophotometer to measure a degree of glycation.
The glycation experimental group of Mathematical Formula 3 is an experimental group in which glycation was induced by adding 1 M L-arginine and 1 M glucose, and to measure the absorbance of a sample itself, absorbance was measured at 420 nm after adding only 1 M L-arginine and the sample and no glucose.
The glycation inhibitory activity can be calculated according to the following Mathematical Formula 3. Each group was tested three times, and an average value was obtained.

EGF: epidermal growth factor known to promote hyaluronic acid production, positive control
Hyaluronic acid (%) [1]: 150.9%

OC[C@H]1O[C@@H](Oc2ccc(O)cc2)[C@H](O)[C@@H](O)[C@@H]1O [Arbutin, arbutin]
Total melanin amount (Abs) ([2]; absorbance at 400 nm per 10^6 cells, control 0.254): 0.126 Abs
inhibition at 100 µg/mL ([2]; Mus musculus, 72 h, relative to control, read-out: Inhibition rate (%) (total melanin)): 50.4%

O=C1O[C@H]([C@@H](O)CO)C(O)=C1O [Vitamin C, vitamin C]
Collagen increase rate (%) [3]: 26%
Tyrosinase inhibition rate (%) [4]: 50%

N=C(N)NN [Aminoguanidine, aminoguanidine]
Glycation inhibition rate (%) [5]: 54.89%
